According to patent US8420658B2, “Use of Carboxyamidotriazole (CAI) orotate in macular degeneration” (Tactical Therapeutics Inc, priority 2006, dated 2013):

Tests used:
[1] = test system: Human umbilical vein endothelial cells (HUVEC); test: Proliferation assay for endothelial cells (HUVEC), cell count after 3 days of treatment; format: cell-based; settings: HUVEC treated with three different concentrations for 3 days; triplicate; FIG. 1
Experimental: FIG. 1 illustrates the results of the proliferation assay for endothelial cells (HUVEC).
Human umbilical vein endothelial cells (HUVEC) were treated with three different concentrations of Carboxyamidotriazole or 5 amino 1,2,3-triazole orotate (CAI Orotate) for 3 days. The cell number of each culture under different treatment conditions was counted. The assays were done in triplicate and the data are expressed as mean +/− standard deviation.

[2] = test system: Dunning rat model for prostate cancer; settings: orotate salt of CAI compared with CAI; from U.S. Pat. Nos. 5,861,406 and 5,912,346; cited from earlier work

Compound: NC(=O)c1nnn(Cc2cc(Cl)c(C(=O)c3ccc(Cl)cc3)c(Cl)c2)c1N.O=C(O)c1cc(=O)[nH]c(=O)[nH]1 [CAI Orotate, Carboxyamidotriazole or 5 amino 1,2,3-triazole orotate]
- Inhibition of angiogenesis (HUVEC cell number) [1]: inhibited angiogenesis in a dose related manner
- Antitumor effect compared with CAI [2]: improved antitumor effect
